Measured values reported in article PMC11912270, “Synthesis and SAR Studies of Acyl-Thiourea Platinum(II) Complexes Yield Analogs with Dual-Stage Antiplasmodium Activity” (ACS Medicinal Chemistry Letters, 2025).

Legend:
[1] = system: PfK1 ABS parasites; assay type: cell-based, Plasmodium falciparum
Method: The parasites were incubated under drug […]
incubation, parasite survival was determined by adding equal volumes of parasite suspension (100 µL) and SYBR Green I lysis buffer (0.2% µL/mL of 10 000x SYBR Green I, 20 mM Tris-HCl, pH 7.5, 5 mM EDTA, 0.008% saponin (w/v) and 0.08% Triton x-100). This was incubated for 1 hour at room temperature in the dark. […]

[2] = system: Chinese hamster ovary (CHO) cell line; experiment: MTT cytotoxicity assay; assay type: cell-based; conditions: cytotoxicity, MTT, 48 h; N, n = 1, 3; read-out: CHO IC50
Method: 1.6.In vitro cytotoxicity assay
A 3-(4,5-dimethylthiazol-2-yl)-2,5-diphenyltetrazoliumbromide (MTT) assay was used to screen the metal complexes against the mammalian Chinese hamster ovarian (CHO) cell line.
A stock solution of each compound (2 mg/mL) in DMSO was prepared and kept at -20 °C until needed. Emetine was used as a reference drug. A starting concentration of 100 µg/mL was used, and serially diluted ten-fold using a complete medium to give the lowest concentration of 0.001 µg/mL (6 dilutions). The plates containing the CHO cells under drug pressure were […]
Plates containing the drug and cell suspension were developed by adding 25 μL of sterile MTT (Thermo Fisher Scientific) (25 µL) to each well, followed by 4 h […]
of incubation at room temperature in the dark. The plates were then centrifuged, and the supernatant was removed via aspiration. Sample absorbance was read at a wavelength of 540 […]
analysis via GraphPad Prism v.4.0 software. The IC50 values were determined for each compound were determined from the dose-response curves. […]

[3] = Kinetic solubility by HPLC (pH 6.5); conditions: kinetic, HPLC, pH 6.5
Method: 1.7. Kinetic solubility by HPLC (pH 6.5)
Solubility was measured at pH 6.5 using an adapted miniaturized shake-flask method, in 96-well plate format.4,5 Briefly, 4 µL of a 10 mM stock in DMSO was added to a 96-well plate and evaporated using a GeneVac system. Phosphate buffer pH 6.5 was then added to the wells […]
At the end of this incubation, the […]
in the analysis plate. Analysis was then performed by HPLC-DAD and the solubility of each sample was determined from the corresponding calibration curve. […]

[4] = Plasma protein binding by ultracentrifugation; assay type: in vitro ADME, human
Method: To determine the PK parameters, blood samples were collected from the tail vein of the mice into heparinized microcentrifugation tubes at distinct sampling times (0.17, 0.5, 1, 3, 5, 7, 9, 24, and 48 hours for intravenous dosing; 0.5, 1, 3, 5, 7, 9, 24 and 48 hours for oral dosing). All samples were stored at -80 °C until extraction.
For the bioanalysis, frozen whole blood was thawed at room temperature and 1-0 µL of each sample was extracted by protein precipitation (using 100 µL of acetonitrile containing 10 ng/ml of the internal standard, MMV394902). The sample was centrifuged. Supernatants of each sample were injected into the LC-MS/MS column for analysis. The analytical limit of quantitation (LOQ) was 2 ng/mL. The pharmacokinetic parameters were calculated using noncompartmental analysis using PK Solutions 2.0 (Summit Research Services, Montrose, CO, USA) and a curve stripping-based method.
1.10. […]
In preparation for the assay, the required membrane filters were precoated with hexadecane (5%) in hexane and were allowed to dry. […] The samples were analyzed using LCMS/MS (Agilent rapid resolution HPLC, AB SCIEX 4500 MS). The permeability (Papp) was calculated by using the normalized (analyte/internal standard) peak areas. Membrane integrity was calculated from the Papp of Lucifer yellow (acceptable values <50nm/s) using a Modulus microplate reader. […]

[5] = Glutathione binding UV-Vis titration; conditions: GSH binding
Method: The binding of glutathione (GSH) to the platinum(II) complexes was monitored by observing the decrease in the metal-to-ligand-charge transfer (MLCT) band via a UV-Vis spectrophotometer.8 For this, 1–10 µL aliquots of GSH (0.4 M) in a PBS and DMSO (0.01% DMSO, v/v) mixture was added to a cuvette containing the relevant metal complex (50 µM) in the same solvent mixture. After each addition, the solution was stirred and allowed to incubate at room temperature for 3–5 minutes before recording the absorption spectrum between the wavelength range of 250–700 nm. These titrations were performed in triplicate and the average binding constants (logK) were reported with the standard error of the mean (SEM). The logK values were calculated from the best-fit model (describing a 1:1 association) using Equation 1.

[6] = system: red blood cells (RBCs); experiment: Hemolysis assay; assay type: cell-based; conditions: up to 10 μM, 1 and 72 h
Method: The hemolysis assay was conducted in a 96-well round-bottom plate. A 10 mM stock of the test compound in DMSO was diluted to 10 μM using complete growth medium. Complete growth medium (100 μL) was added to all wells in columns 1 and columns 3–12. The test compound in a complete growth medium (200 μL) were added in duplicate to well 2 and serially diluted two-fold down the plate (from wells 2–11). Triton X-100 (4%, v/v) was used as
RBCs in complete growth medium
(2% hematocrit) were lysed via three freeze/thaw cycles (-80 °C/37 °C) and were added to all wells in column 1 (100 µL). Intact RBCs in complete growth medium were added to wells 2– 12 and the plates were incubated at 37 °C for either 1 hour or 72 hours. After removing the plates from the incubator, each well was mixed thoroughly with a multichannel pipette and spun in a centrifuge at 750 rcf for 5 minutes. The supernatant was transferred to a 96-well flat-bottom plate and the absorbance of each well read on a microplate reader (Thermo Scientific
Percentage hemolysis was calculated using Equation 2 and the graphs generated using GraphPad Prism 10.
% ℎ𝑒𝑚𝑜𝑙𝑦𝑠𝑖𝑠 = (𝐴𝑠 ― 𝐴0) × 100 𝑬𝒒. 𝟐

[7] = system: ABS parasites; experiment: Dual point activity against ABS parasites; assay type: cell-based, Plasmodium falciparum; conditions: single biological repeat
Excerpt: Table S2: Dual point activity of platinum(II) complexes against ABS parasites, early- and late-
stage gametocytes. Values are averaged from technical triplicates performed for a single

What does the source list for `Nc1cc[n+]2c(c1)-c1cc(N)cc[n+]1[Pt-2]21[O+]=C(c2ccccc2)N=C(N(CCO)CCO)[S]1.[Cl-]` [C6]?
IC50 ([1]; ABS, SYBR Green I, 96 h, mean ± S.E.): 102 ± 13 nM; RI (resistance index) ([1]; RI = PfK1 IC50/PfNF54 IC50): 2.8; IC50 [2]: > 50000 nM; Aqueous solubility pH 6.5 [3]: 100 μM; Fu ([4]; Fu = (100 – PPB)/100): 0.01; PPB (% bound) ([4]; human plasma, 5 µM): 99% bound; Average logK ± SEM ([5]; N = 3, PBS): 2.58 ± 0.19; LogK N = 1 ([5]; replicate N = 1): 2.80; LogK N = 2 ([5]; replicate N = 2): 2.21; LogK N = 3 ([5]; replicate N = 3): 2.74; in vitro hemolytic activity [6]: do not induce hemolysis; ABS (% inhibition) 1 µM ([7]; 1 µM): 100.7 % inhibition; ABS (% inhibition) 5 µM ([7]; 5 µM): 100.2 % inhibition
